# In ChEMBL document CHEMBL1128201, “Selective and potent monoamine oxidase type B inhibitors: 2-substituted 5-aryltetrazole derivatives” (J Med Chem, 1995):
# What was measured:
# [1] = target: T1, Amine oxidase [flavin-containing] A (Rattus norvegicus, UniProt P21396); experiment: In vitro inhibitory activity against rat brain Monoamine oxidase A
# T1 sequence (P21396 whole entry): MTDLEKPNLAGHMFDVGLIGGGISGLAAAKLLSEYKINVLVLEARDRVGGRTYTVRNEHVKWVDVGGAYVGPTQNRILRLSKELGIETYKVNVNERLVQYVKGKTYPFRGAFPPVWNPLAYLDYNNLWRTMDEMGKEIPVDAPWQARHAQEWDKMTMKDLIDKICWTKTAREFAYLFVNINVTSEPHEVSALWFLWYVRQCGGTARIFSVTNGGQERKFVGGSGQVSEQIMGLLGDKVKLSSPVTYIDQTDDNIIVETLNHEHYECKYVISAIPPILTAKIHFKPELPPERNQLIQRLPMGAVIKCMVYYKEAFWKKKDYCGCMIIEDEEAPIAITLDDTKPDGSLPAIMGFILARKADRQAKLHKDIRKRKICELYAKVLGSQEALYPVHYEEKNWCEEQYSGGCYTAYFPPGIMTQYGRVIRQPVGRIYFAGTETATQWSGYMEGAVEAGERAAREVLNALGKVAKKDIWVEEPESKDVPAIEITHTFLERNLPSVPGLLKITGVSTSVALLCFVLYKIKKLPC
# [2] = Selectivity for the B form was estimated by the IC50(MAO A)/IC50(MAO B) ratio.
# [3] = target: T2, Amine oxidase [flavin-containing] B (Rattus norvegicus, UniProt P19643); experiment: In vitro inhibitory activity against rat brain Monoamine oxidase B
# T2 sequence (P19643 whole entry): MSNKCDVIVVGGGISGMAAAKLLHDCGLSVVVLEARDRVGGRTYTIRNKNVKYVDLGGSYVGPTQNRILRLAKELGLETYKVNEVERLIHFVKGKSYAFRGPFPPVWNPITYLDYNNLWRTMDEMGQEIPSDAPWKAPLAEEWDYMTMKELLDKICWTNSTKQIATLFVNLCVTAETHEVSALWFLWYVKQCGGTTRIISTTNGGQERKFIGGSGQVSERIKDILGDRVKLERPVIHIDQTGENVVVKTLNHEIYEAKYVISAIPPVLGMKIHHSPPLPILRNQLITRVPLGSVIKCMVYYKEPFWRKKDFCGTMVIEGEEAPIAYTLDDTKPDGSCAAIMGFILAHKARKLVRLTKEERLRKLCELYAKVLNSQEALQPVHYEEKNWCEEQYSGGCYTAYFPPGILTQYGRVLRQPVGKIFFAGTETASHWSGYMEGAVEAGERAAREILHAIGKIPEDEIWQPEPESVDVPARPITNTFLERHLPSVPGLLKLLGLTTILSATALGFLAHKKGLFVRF
# [4] = target: T2, Amine oxidase [flavin-containing] B; experiment: (§1) Ex vivo inhibitory activity against rat brain monoamine oxidase (MAO) type B at a dose of 5 mg/kg administered orally at 1 hr; conditions: po
# [5] = target: T1, Amine oxidase [flavin-containing] A; experiment: (§2) Ex vivo inhibitory activity against rat brain monoamine oxidase (MAO) type A at a dose of 5 mg/kg administered orally at 1 hr; format: organism-based; design: dose 5 mg/kg, route oral; conditions: po
# [6] = target: T1, Amine oxidase [flavin-containing] A; experiment: Ex vivo inhibitory activity against rat brain monoamine oxidase (MAO) type A at a dose of 5 mg/kg administered orally at 24 hr; format: functional, organism-based; design: dose 5 mg/kg, route oral; conditions: po
# [7] = target: T1, Amine oxidase [flavin-containing] A; experiment: Ex vivo inhibitory activity against rat brain monoamine oxidase (MAO) type A at a dose of 5 mg/kg administered orally at 8 hr; format: functional, organism-based; design: dose 5 mg/kg, route oral; conditions: po
# [8] = target: T2, Amine oxidase [flavin-containing] B; experiment: Ex vivo inhibitory activity against rat brain monoamine oxidase (MAO) type B at a dose of 5 mg/kg administered orally at 24 hr; format: functional, organism-based; design: dose 5 mg/kg, route oral; conditions: po
# [9] = target: T2, Amine oxidase [flavin-containing] B; experiment: (§3) Compound was evaluated for inhibitory activity against monoamine oxidase (MAO) type B by reversibility test after dialysis at a concentration of 0.1 uM; format: functional; conditions: read-out: Control
# [10] = target: T1, Amine oxidase [flavin-containing] A; experiment: Ex vivo inhibitory activity against rat brain monoamine oxidase (MAO) type A at a dose of 5 mg/kg administered orally at 4 hr; format: functional, organism-based; design: dose 5 mg/kg, route oral; conditions: po
# [11] = target: T2, Amine oxidase [flavin-containing] B; experiment: (§4) Compound was evaluated for inhibitory activity against monoamine oxidase (MAO) type B by reversibility test before dialysis at a concentration of 0.1 uM; format: functional; conditions: read-out: Control
# [12] = target: T2, Amine oxidase [flavin-containing] B; experiment: as §1; format: functional, organism-based; design: dose 5 mg/kg, route oral; conditions: po
# [13] = target: T2, Amine oxidase [flavin-containing] B; experiment: Ex vivo inhibitory activity against rat brain monoamine oxidase (MAO) type B at a dose of 5 mg/kg administered orally at 4 hr; format: functional, organism-based; design: dose 5 mg/kg, route oral; conditions: po
# [14] = target: T1, Amine oxidase [flavin-containing] A; experiment: Ex vivo inhibitory activity against rat brain monoamine oxidase (MAO) type A at a dose of 5 mg/kg administered orally at 0.5 hr; format: functional, organism-based; design: dose 5 mg/kg, route oral; conditions: po
# [15] = target: T2, Amine oxidase [flavin-containing] B; experiment: Ex vivo inhibitory activity against rat brain monoamine oxidase (MAO) type B at a dose of 5 mg/kg administered orally at 0.5 hr; format: functional, organism-based; design: dose 5 mg/kg, route oral; conditions: po
# [16] = target: T1, Amine oxidase [flavin-containing] A; experiment: as §2; format: functional, organism-based; design: dose 5 mg/kg, route oral; conditions: po
# [17] = target: T2, Amine oxidase [flavin-containing] B; experiment: Compound was evaluated for the Inhibition of Monoamine oxidase B
# [18] = target: T2, Amine oxidase [flavin-containing] B; experiment: Compound was evaluated for inhibitory activity against monoamine oxidase (MAO) type B by reversibility test before dialysis at a concentration of 0.001 uM; format: functional; conditions: read-out: Control
# [19] = target: T2, Amine oxidase [flavin-containing] B; experiment: Compound was evaluated for inhibitory activity against monoamine oxidase (MAO) type B by reversibility test after dialysis at a concentration of 0.001 uM; conditions: read-out: Control
# [20] = target: T2, Amine oxidase [flavin-containing] B; experiment: as §3; conditions: read-out: Control
# [21] = target: T2, Amine oxidase [flavin-containing] B; experiment: as §4; conditions: read-out: Control
# [22] = target: T2, Amine oxidase [flavin-containing] B; experiment: Inhibitory activity against monoamine oxidase (MAO) type B by reversibility test after dialysis at a concentration of 0.001 uM; conditions: read-out: Control
# [23] = target: T2, Amine oxidase [flavin-containing] B; experiment: Inhibitory activity against monoamine oxidase (MAO) type B by reversibility test before dialysis at a concentration of 0.001 uM; conditions: read-out: Control
# [24] = target: T2, Amine oxidase [flavin-containing] B; experiment: Inhibitory activity against monoamine oxidase (MAO) type B by reversibility test before dialysis at a concentration of 0.1 uM; conditions: read-out: Control
# [25] = target: T2, Amine oxidase [flavin-containing] B; experiment: Inhibitory activity against monoamine oxidase (MAO) type B by reversibility test after dialysis at a concentration of 0.1 uM; conditions: read-out: Control
Structure (SMILES),IC50 [1],IC50 [3],other results
Cc1ccccc1COc1ccc(-c2nnn(CCO)n2)cc1,> 100 µM,,Selectivity [2]: > 350
COc1ccc2c3c([nH]c2c1)C(C)=NCC3 [HARMALINE],0.012 µM,150 µM,Selectivity [2]: 5
OCCCCn1nnc(-c2ccc(-c3ccccc3)cc2)n1,13 µM,9.4 µM,
Cc1ccc(COc2ccc(-c3nnn(CCO)n3)cc2)cc1,> 100 µM,,
C#CCN(C)[C@H](C)Cc1ccccc1 [SELEGILINE],,,inhibition at 5 mg/kg [4]: 83%; inhibition at 5 mg/kg [5]: 3%; inhibition at 5 mg/kg [6]: 2%; inhibition at 5 mg/kg [7]: 5%; inhibition at 5 mg/kg [8]: 81%
OCCn1nnc(-c2ccc(OCc3ccccc3)cc2)n1,64 µM,0.03 µM,remaining activity at 0.1 µM [9]: 107%; inhibition at 5 mg/kg [10]: 4%; remaining activity at 0.1 µM [11]: 19%; inhibition at 5 mg/kg [12]: 84%; inhibition at 5 mg/kg [13]: 63%; inhibition at 5 mg/kg [14]: 5%; inhibition at 5 mg/kg [15]: 84%; inhibition at 5 mg/kg [16]: 4%; Selectivity [2]: 2100
OCCn1nnc(-c2ccc(OCc3ccccc3Cl)cc2)n1,,9 µM,
N#CCCn1nnc(-c2ccccc2)n1,54 µM,> 100 µM,
N#CCCn1nnc(-c2ccc(OCc3ccc(Cl)cc3)cc2)n1,> 100 µM,0.08 µM,
Cc1ccc(COc2ccc(-c3nnn(CCC#N)n3)cc2)cc1,> 100 µM,,
COc1cccc(COc2ccc(-c3nnn(CCC#N)n3)cc2)c1,> 100 µM,,
Cc1cccc(COc2ccc(-c3nnn(CCC#N)n3)cc2)c1,> 100 µM,,
OCCn1nnc(-c2ccccc2)n1,> 100 µM,89 µM,
N#CCCn1nc(-c2ccc(OCc3ccccc3)cc2)oc1=S,,,IC50 [17]: 0.0046 µM
N#CCCn1nnc(-c2ccc(OCc3cccc(Cl)c3)cc2)n1,> 100 µM,0.1 µM,remaining activity at 0.001 µM [18]: 69%; remaining activity at 0.001 µM [19]: 95%; inhibition at 5 mg/kg [10]: 8%; remaining activity at 0.1 µM [20]: 87%; remaining activity at 0.1 µM [21]: 15%; inhibition at 5 mg/kg [12]: 81%; inhibition at 5 mg/kg [6]: 1%; inhibition at 5 mg/kg [13]: 63%; inhibition at 5 mg/kg [14]: 13%; inhibition at 5 mg/kg [15]: 72%; inhibition at 5 mg/kg [16]: 18%; Selectivity [2]: > 1000; inhibition at 5 mg/kg [8]: 9%
N#CCCn1nc(-c2ccc(OCc3ccccc3)cc2)oc1=O,,,IC50 [17]: 0.0046 µM
N#CCCn1nnc(-c2ccc(OCc3ccccc3Cl)cc2)n1,> 100 µM,0.03 µM,
OCCn1nnc(-c2ccncc2)n1,> 100 µM,> 100 µM,
OCCCn1nnc(-c2ccc(-c3ccccc3)cc2)n1,4.6 µM,1.36 µM,
OCCn1nnc(-c2ccc(OCc3ccc(Cl)cc3)cc2)n1,,0.32 µM,
N#CCCCCCCn1nnc(-c2ccc(-c3ccccc3)cc2)n1,,,Selectivity [2]: 8.5

Structure (SMILES),IC50 [1],IC50 [3],other results
N#CCCn1nnc(-c2ccncc2)n1,> 100 µM,30 µM,
O=[N+]([O-])c1ccc(-c2nnn(CCO)n2)cc1,> 100 µM,> 100 µM,
N#CCCn1nnc(-c2ccc(OCc3ccccc3)cc2)n1,,0.002 µM,remaining activity at 0.001 µM [22]: 85%; inhibition at 5 mg/kg [10]: 0%; remaining activity at 0.001 µM [23]: 65%; remaining activity at 0.1 µM [24]: 12%; remaining activity at 0.1 µM [25]: 54%; inhibition at 5 mg/kg [12]: 74%; inhibition at 5 mg/kg [6]: 2%; inhibition at 5 mg/kg [13]: 69%; inhibition at 5 mg/kg [14]: 6%; inhibition at 5 mg/kg [15]: 76%; inhibition at 5 mg/kg [16]: 12%; Selectivity [2]: 37000; inhibition at 5 mg/kg [8]: 24%
COc1ccc(-c2nnn(CCC#N)n2)cc1,16.6 µM,37 µM,
N#CCCn1nnc(-c2ccc(OCc3ccccc3I)cc2)n1,> 100 µM,> 270 µM,
OCCn1nnc(-c2ccc(OCc3ccccc3I)cc2)n1,> 100 µM,0.35 µM,
OCCn1nnc(-c2ccc(Cl)cc2)n1,66 µM,38 µM,
OCCn1nnc(-c2ccc(-c3ccccc3)cc2)n1,11 µM,0.96 µM,
COc1ccc(-c2nnn(CCO)n2)cc1,46 µM,> 100 µM,
OCCn1nnc(-c2ccc(OCc3ccc(F)cc3)cc2)n1,> 100 µM,,
N#CCCCCn1nnc(-c2ccc(-c3ccccc3)cc2)n1,26 µM,6 µM,
N#CCCn1nnc(-c2ccc([N+](=O)[O-])cc2)n1,18 µM,13.4 µM,
Cc1ccccc1COc1ccc(-c2nnn(CCC#N)n2)cc1,> 100 µM,,
COc1ccc(COc2ccc(-c3nnn(CCC#N)n3)cc2)cc1,> 100 µM,,
COc1ccc(COc2ccc(-c3nnn(CCO)n3)cc2)cc1,> 100 µM,,
N#CCCn1nnc(-c2ccc(OCc3ccc(F)cc3)cc2)n1,> 100 µM,,
COc1cccc(COc2ccc(-c3nnn(CCO)n3)cc2)c1,80 µM,,
Cc1cccc(COc2ccc(-c3nnn(CCO)n3)cc2)c1,> 100 µM,,
N#CCCn1nnc(-c2ccc(-c3ccccc3)cc2)n1,,0.84 µM,
N#CCCn1nnc(-c2ccc(Cl)cc2)n1,6.5 µM,3.6 µM,
OCCn1nnc(-c2ccc(OCc3cccc(Cl)c3)cc2)n1,58 µM,0.2 µM,remaining activity at 0.1 µM [9]: 109%; inhibition at 5 mg/kg [10]: 14%; remaining activity at 0.1 µM [11]: 25%; inhibition at 5 mg/kg [12]: 71%; inhibition at 5 mg/kg [13]: 55%; inhibition at 5 mg/kg [14]: 15%; inhibition at 5 mg/kg [15]: 69%; inhibition at 5 mg/kg [16]: 15%; Selectivity [2]: 290
